Measured values reported in paper PMC3164168 (PLoS ONE, 2011).
Entries after “also recorded” stand apart in the source; their conditions may differ. Read-outs that look alike come from different tables or passages of the source.

Assays:
[1] = test system: HeLa (cervical adenocarcinoma); experiment: MTT cancer cell growth assay, HeLa; type: cell-based, human; conditions: for CC50: read-out: CC50 HeLa
Description: (§1) HeLa (Human Cervical Adenocarcinoma), HCT116 (Human Colorectal Carcinoma) and 1205Lu (Human Melanoma) cells (all from ATCC) were maintained in DMEM containing 10% fetal bovine serum. 12–16 hours prior to drug treatment, 3×10^3 to 5×10^3 cells were seeded on each well of 96-well tissue culture plates. Drugs were diluted in DMEM containing 10% fetal bovine serum and applied to the cells. 72 hours after drug treatment, 20 µl of MTT solution (5 mg/ml in PBS) was added into each well, followed by shaking the plates at 150 rpm for 5 minutes and an incubation of 4 hours (37°C, 5% CO2). Media was removed, plates dried and each well was resuspended in 100 µl MTT formazan/DMSO. The absorbance of each well was recorded at 560 nm on GloMax®-Multi+ Detection System (Promega).

1205Lu (melanoma) = experiment: MTT cancer cell growth assay, 1205Lu; type: cell-based, human; conditions: for CC50: read-out: CC50 1205Lu
Description: as §1

[2] = CellTiter-Glo Luminescent Cell Viability assay in HFF; type: cell-based; conditions: human
Description: (§2) Human Foreskin Fibroblasts (HFF) passage 12–16 (ATCC, CRL-2088™) were grown in Dulbecco's Modified Eagle Medium (DMEM) containing 10% fetal bovine serum (Gibco, Carlsbad, CA) in a 5% CO2 incubator at 37°C and used for infections with pp28-luciferase Towne CMV or the GCV-resistant strain. One day prior to infection with the pp28-luciferase, 4×10^4 HFF cells were seeded on each well of 24-well tissue culture plates. Infection was carried out at multiplicity of infection of 1 PFU/cell (MOI = 1). Following 90 minute adsorption, media containing virus was removed and replaced by DMEM with 4% fetal bovine serum (Gibco, Carlsbad, CA) containing anti-viral compounds. The concentration of each compound was calculated and adjusted by volume such that it was constant throughout the experiment.
(§3) Infected and treated HFF cells were collected 72 hpi and washed once with PBS. The lysates were assayed for luciferase and cell viability using a Luciferase Assay Kit (Promega, Madison, WI) and CellTiter-Glo Luminescent Cell Viability Assay Kit, respectively, on GloMax®-Multi+ Detection System (Promega) according to manufacturer's instructions.

HFF = experiment: as above; type: cell-based
Description: as §2, §3

[3] = test system: pp28-luciferase Towne CMV; experiment: microbe, parasite or virus in culture; type: cell-based, human cytomegalovirus; conditions: for inhibition of late pp28 gene expression (luciferase activity): 72 hpi; for difference in SI versus parent alcohol: 838 vs 606, 832-4 vs 760; for EC50: Human betaherpesvirus 5; for SI (selectivity index, ratio of CC50 to EC50): CC50 in HFF / anti-CMV EC50
From the text: The pp28-luciferase Towne strain was constructed as previously described. Briefly, the recombinant virus, which expresses luciferase under the control of UL99 (pp28) late promoter was generated by insertion of the reporter gene between the US9 and US10 open reading frames (ORFs) in the Towne genome. […] The ganciclovir (GCV)-resistant strain was obtained from a patient with CMV disease. […] This clinical isolate was provided by the clinical virology laboratory with no identifiers that can link to a specific subject. The Johns Hopkins Office of Human Subject Research Institutional Review Board determined that this research qualified for an exemption.
as §2, §3

[4] = test system: HCT116 (colorectal carcinoma); experiment: MTT cancer cell growth assay, HCT116; type: cell-based, human; conditions: for CC50: read-out: CC50 HCT116
Description: as §1

[5] = test system: GCV-resistant CMV strain (UL97 mutation H520Q); experiment: Plaque reduction assay, GCV-resistant CMV strain; type: cell-based, human cytomegalovirus; conditions: for inhibition of plaque formation, GCV-resistant CMV strain: 0.1 µM, plaques counted 21 days after infection
From the text: The pp28-luciferase Towne strain was constructed as previously described. Briefly, the recombinant virus, which expresses luciferase under the control of UL99 (pp28) late promoter was generated by insertion of the reporter gene between the US9 and US10 open reading frames (ORFs) in the Towne genome. […] We have recently reported that the pp28-luciferase reporter system is sensitive, reproducible and highly correlates with plaque reduction. The ganciclovir (GCV)-resistant strain was obtained from a patient with CMV disease. […] This clinical isolate was provided by the clinical virology laboratory with no identifiers that can link to a specific subject. The Johns Hopkins Office of Human Subject Research Institutional Review Board determined that this research qualified for an exemption.
Human lung fibroblasts (HEL) passage 8–12 (ATCC, CCL-137™) were grown in DMEM containing 10% fetal bovine serum. One day prior to infection, 3×10^5 cells were seeded on each well of 12-well tissue culture plates. GCV-resistant CMV was diluted in DMEM to a desired concentration which gave around 100 plaques per well and added to each well in duplicates. Plates were incubated for 90 minutes with shaking every 10 min; thereafter drugs were added and a methylcellulose overlay applied to each well. After incubation for 21 days, cells were stained with crystal violet and plaques were counted under microscope at 40× magnification.

[6] = Homo sapiens, HeLa, MTT 72 hr after treatment
[7] = Homo sapiens, 1205Lu, MTT 72 hr after treatment
[8] = Homo sapiens, HCT-116, MTT 72 hr after treatment
[9] = HFF, 72 h, measured at 1 µM to 100 µM, read-out: CC50

SMILES | CC50 [1, 6] [nM] | CC50 (1205Lu (melanoma); [7]) [nM] | inhibition of late pp28 gene expression (luciferase activity) ([3]; 0.1 µM) | EC50 [3] [nM] | CC50 [4, 8] [nM] | SI (selectivity index, ratio of CC50 to EC50) [3] | other results
CC1CCC2C(C)C(CC(CC3OC4OC5(C)CCC6C(C)CCC(C3C)C46OO5)CS(=O)(=O)c3ccc(COC(=O)N(C)C)cc3)OC3OC4(C)CCC1C32OO4 (centres unmarked) [832-4, Dimer isobu-SO2Ph-4-CH2OC(O)NMe2] | 270 ± 30 | 130 ± 7 | highly inhibitory | 70 ± 4 | 70 ± 6 |  | CC50 at 72 h [2]: 57.5 ± 2.9 µM; cellular toxicities at concentrations of complete CMV inhibition (HFF): not observed; effectiveness in CMV inhibition versus monomer 551 [3]: at least 150 fold; difference in SI versus parent alcohol [3]: 30 fold; inhibition of plaque formation, GCV-resistant CMV strain [5]: fully inhibited
C[C@H]1[C@@H](CCC(=O)Nc2ccc(F)cc2)O[C@@H]2OC3(C)CC[C@H]4[C@H](C)CC[C@@H]1[C@@]24OO3 [Artefanilide] |  |  |  |  |  |  | CC50 ([1]; MTT 72 hr after treatment): > 50000 nM; CC50 (1205Lu (melanoma); MTT 72 hr after treatment): > 50000 nM; CC50 (HFF): 44.9 ± 3.4 µM; CC50 ([4]; MTT 72 hr after treatment): 40000 ± 7900 nM
Nc1nc(O)c2ncn(COC(CO)CO)c2n1 [GCV, Ganciclovir, reference compound] | > 50000 | > 50000 | no inhibition at all | 2700 ± 100 | > 50000 | 96±14 | CC50 at 72 h [2, 9]: 247 ± 33.4 µM; plaque formation, GCV-resistant CMV strain ([5]; GCV at 5 µM, 21 days): obvious resistance; EC50 ([5]; Human betaherpesvirus 5, read-out: EC50 of GCV for the GCV-resistant strain): 7.6 µM
CC1CCC2C(C)C(CCCS(=O)(=O)c3ccc(COC(=O)N(C)C)cc3)OC3OC4(C)CCC1C32OO4 (centres unmarked) [compound 551, Art-PrSO2Ph-4-CH2OC(O)NMe2] |  |  |  |  |  |  | inhibition of late pp28 gene expression (luciferase activity) ([3]; 1 µM): did not
CC1CCC2C(C)C(CC(COP(=O)(Oc3ccccc3)Oc3ccccc3)CC3OC4OC5(C)CCC6C(C)CCC(C3C)C46OO5)OC3OC4(C)CCC1C32OO4 (centres unmarked) [compound 838, Dimer isobu-OP(O)(OPh)2] |  |  | highly inhibitory | 40 ± 3 |  |  | potency in inhibiting growth versus artesunate, HeLa [1]: 37 fold; CC50 ([1]; Homo sapiens, HeLa, 72 h): 190 ± 80 nM; potency in inhibiting growth versus artesunate, 1205Lu (1205Lu (melanoma)): at least 200 fold; CC50 (1205Lu (melanoma); Homo sapiens, 1205Lu, 72 h): 60 ± 2 nM; CC50 at 72 h [2, 9]: 55.8 ± 2.8 µM; cellular toxicities at concentrations of complete CMV inhibition (HFF; HFF): not observed; SI versus artesunate [3]: 134 fold; anti-CMV potency versus artesunate (using EC50 values) [3]: 165 fold; difference in SI versus parent alcohol [3]: 5 fold; potency in inhibiting growth versus artesunate, HCT116 [4]: at least 200 fold; CC50 ([4]; Homo sapiens, HCT-116, 72 h): 40 ± 5 nM; inhibition of plaque formation, GCV-resistant CMV strain [5]: fully inhibited; also recorded: highly active
CC1CCC2C(C)C(CC(CC3OC4OC5(C)CCC6C(C)CCC(C3C)C46OO5)CS(=O)(=O)c3ccc(CO)cc3)OC3OC4(C)CCC1C32OO4 (centres unmarked) [compound 760, Dimer isobu-SO2Ph-4-CH2OH] | 560 ± 180 | 100 ± 6 |  | 140 ± 8 | 70 ± 5 | 34.5±2 | CC50 at 72 h [2]: 4.9 ± 0.2 µM
C[C@H]1[C@H](OC(=O)CCC(=O)O)O[C@@H]2O[C@@]3(C)CC[C@H]4[C@H](C)CC[C@@H]1[C@@]24OO3 [artesunate, Artesunate, reference compound] | 7100 ± 400 | 42000 ± 2400 |  | 6600 ± 400 | 11300 ± 600 | 11±0.9 | CC50 at 72 h [2, 9]: 71.7 ± 4 µM
CC1CCC2C(C)C(CC(CC3OC4OC5(C)CCC6C(C)CCC(C3C)C46OO5)CS(=O)(=O)c3cccc(COC(=O)N(C)C)c3)OC3OC4(C)CCC1C32OO4 (centres unmarked) [832-3, Dimer isobu-SO2Ph-3-CH2OC(O)NMe2] |  |  | not active |  |  |  | inhibition of late pp28 gene expression (luciferase activity) ([3]; 0.3 µM): active
CC1CCC2C(C)C(CC(CSc3ccc(COC(=O)N(C)C)cc3)CC3OC4OC5(C)CCC6C(C)CCC(C3C)C46OO5)OC3OC4(C)CCC1C32OO4 (centres unmarked) [800-4, Dimer isobu-SPh-4-CH2OC(O)NMe2] |  |  | not active |  |  |  | inhibition of late pp28 gene expression (luciferase activity) ([3]; 0.3 µM): active
CC1CCC2C(C)C(CC(CSc3cccc(COC(=O)N(C)C)c3)CC3OC4OC5(C)CCC6C(C)CCC(C3C)C46OO5)OC3OC4(C)CCC1C32OO4 (centres unmarked) [800-3, Dimer isobu-SPh-3-CH2OC(O)NMe2] |  |  | not active |  |  |  | inhibition of late pp28 gene expression (luciferase activity) ([3]; 0.3 µM): active
CC1CCC2C(C)C(CC(CO)CC3OC4OC5(C)CCC6C(C)CCC(C3C)C46OO5)OC3OC4(C)CCC1C32OO4 (centres unmarked) [compound 606, Dimer isobu-OH] | 1060 ± 200 | 4900 ± 40 |  | 160 ± 8 | 100 ± 1 | 292±21 | CC50 at 72 h [2]: 48.1 ± 2.6 µM
